Among the data in patent US11998537B2, “Substituted indole dimer compounds” (BRISTOL-MYERS SQUIBB COMPANY, priority 2018, dated 2024) are IC50 values, retold here.

What all share (assay type): cell-based
Test [1] addresses T1, human TLR7 (Homo sapiens, UniProt Q9NYK1).
T1 construct: host or cells: HEK-Blue cells (HEK293-derived reporter line)
T1 sequence (Q9NYK1 27-1049): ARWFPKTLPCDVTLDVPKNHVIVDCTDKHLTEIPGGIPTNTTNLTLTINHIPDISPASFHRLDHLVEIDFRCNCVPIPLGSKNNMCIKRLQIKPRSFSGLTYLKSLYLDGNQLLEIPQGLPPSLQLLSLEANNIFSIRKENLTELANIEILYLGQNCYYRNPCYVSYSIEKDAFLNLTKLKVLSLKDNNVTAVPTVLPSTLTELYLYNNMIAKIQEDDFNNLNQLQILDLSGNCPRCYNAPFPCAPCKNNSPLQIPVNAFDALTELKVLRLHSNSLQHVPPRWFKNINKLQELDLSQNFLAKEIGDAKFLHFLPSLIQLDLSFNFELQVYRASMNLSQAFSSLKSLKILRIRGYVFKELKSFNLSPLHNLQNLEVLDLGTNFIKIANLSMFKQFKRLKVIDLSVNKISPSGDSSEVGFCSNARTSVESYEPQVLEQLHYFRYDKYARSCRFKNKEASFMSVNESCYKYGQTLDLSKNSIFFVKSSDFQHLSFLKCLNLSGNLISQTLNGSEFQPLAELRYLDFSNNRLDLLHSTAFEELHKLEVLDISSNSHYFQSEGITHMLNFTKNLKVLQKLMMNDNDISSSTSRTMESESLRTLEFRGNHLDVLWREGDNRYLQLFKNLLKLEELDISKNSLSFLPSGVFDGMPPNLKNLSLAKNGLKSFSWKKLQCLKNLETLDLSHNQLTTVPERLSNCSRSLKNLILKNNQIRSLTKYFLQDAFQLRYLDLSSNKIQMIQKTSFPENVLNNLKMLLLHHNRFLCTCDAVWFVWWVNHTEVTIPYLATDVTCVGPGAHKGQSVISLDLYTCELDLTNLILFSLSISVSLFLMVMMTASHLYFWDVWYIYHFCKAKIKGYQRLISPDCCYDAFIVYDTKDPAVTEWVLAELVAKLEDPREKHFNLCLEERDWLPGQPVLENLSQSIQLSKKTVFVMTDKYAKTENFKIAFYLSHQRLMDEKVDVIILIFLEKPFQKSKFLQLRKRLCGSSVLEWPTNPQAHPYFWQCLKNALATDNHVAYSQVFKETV
Description: TLR7 inhibition reporter assay (HEK-Blue SEAP). The settings on record: HEK-Blue cells overexpressing human TLR7, gardiquimod 7.5 μM, 22 hour incubation. The procedure: (§1) TLR7/8/9 Inhibition Reporter Assays
(§2) HEK-Blue™-cells (Invivogen) overexpressing human TLR7, TLR8 or TLR9 receptors were used for screening inhibitors of these receptors using an inducible SEAP (secreted embryonic alkaline phosphatase) reporter gene under the control of the IFN-β minimal promoter fused to five NF-κB and AP-1-binding sites. Briefly, cells are seeded into Greiner 384 well plates (15000 cells per well for TLR7, 20,000 for TLR8 and 25,000 for TLR9) and then treated with test compounds in DMSO to yield a final dose response concentration range of 0.05 nM-50 μM. After a 30 minute compound pre-treatment at room temperature, the cells are then stimulated with a TLR7 ligand (gardiquimod at a final concentration of 7.5 μM), TLR8 ligand (R848 at a final concentration of 15.9 μM) or TLR9 ligand (ODN2006 at a final concentration of 5 nM) to activate NF-κB and AP-1 which induce the production of SEAP. After a 22 hour incubation at 37° C., 5% CO2, SEAP levels are determined with the addition of HEK-Blue™ Detection reagent (Invivogen), a cell culture medium that allows for detection of SEAP, according to manufacturer's specifications. The percent inhibition is determined as the % reduction in the HEK-Blue signal present in wells treated with agonist plus DMSO alone compared to wells treated with a known inhibitor.
(A reporter such as luciferase makes a cellular process visible.)

The target in test [2] is T2, human TLR8 (Homo sapiens, UniProt Q9NR97).
T2 construct: host or cells: HEK-Blue cells (HEK293-derived reporter line)
T2 sequence (Q9NR97 27-1041): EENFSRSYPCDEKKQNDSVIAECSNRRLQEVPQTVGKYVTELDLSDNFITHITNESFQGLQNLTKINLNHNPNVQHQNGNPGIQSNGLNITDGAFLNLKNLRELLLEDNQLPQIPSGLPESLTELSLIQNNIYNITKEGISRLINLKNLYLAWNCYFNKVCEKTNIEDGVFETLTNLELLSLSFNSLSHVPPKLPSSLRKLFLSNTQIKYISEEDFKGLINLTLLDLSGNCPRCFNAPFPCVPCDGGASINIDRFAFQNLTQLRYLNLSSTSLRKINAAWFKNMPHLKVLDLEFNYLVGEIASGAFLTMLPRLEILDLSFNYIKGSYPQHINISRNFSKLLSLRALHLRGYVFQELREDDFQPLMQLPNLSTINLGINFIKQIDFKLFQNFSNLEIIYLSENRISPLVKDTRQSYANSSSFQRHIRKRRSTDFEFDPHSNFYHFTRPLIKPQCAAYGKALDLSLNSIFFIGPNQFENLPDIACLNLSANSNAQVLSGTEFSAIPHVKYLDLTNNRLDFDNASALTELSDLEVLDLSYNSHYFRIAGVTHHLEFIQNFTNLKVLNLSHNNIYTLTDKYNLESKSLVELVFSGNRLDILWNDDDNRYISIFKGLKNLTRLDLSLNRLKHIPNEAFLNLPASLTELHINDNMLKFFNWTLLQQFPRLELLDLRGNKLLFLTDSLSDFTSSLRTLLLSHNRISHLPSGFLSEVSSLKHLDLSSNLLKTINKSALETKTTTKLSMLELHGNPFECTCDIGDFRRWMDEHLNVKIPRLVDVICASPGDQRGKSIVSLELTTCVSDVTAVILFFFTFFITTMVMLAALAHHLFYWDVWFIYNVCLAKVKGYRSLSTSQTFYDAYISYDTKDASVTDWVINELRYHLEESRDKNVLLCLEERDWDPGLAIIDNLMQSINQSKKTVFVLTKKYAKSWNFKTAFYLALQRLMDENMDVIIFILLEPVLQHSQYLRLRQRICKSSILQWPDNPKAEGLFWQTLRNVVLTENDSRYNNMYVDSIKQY
The experiment in a line: TLR8 inhibition reporter assay (HEK-Blue SEAP). To be noted: HEK-Blue cells overexpressing human TLR8, R848 15.9 μM, 22 hour incubation. The procedure: as §1, §2

Test [3] deals with T3, human TLR9 (Homo sapiens, UniProt Q9NR96).
T3 construct: host or cells: HEK-Blue cells (HEK293-derived reporter line)
T3 sequence (Q9NR96 26-1032): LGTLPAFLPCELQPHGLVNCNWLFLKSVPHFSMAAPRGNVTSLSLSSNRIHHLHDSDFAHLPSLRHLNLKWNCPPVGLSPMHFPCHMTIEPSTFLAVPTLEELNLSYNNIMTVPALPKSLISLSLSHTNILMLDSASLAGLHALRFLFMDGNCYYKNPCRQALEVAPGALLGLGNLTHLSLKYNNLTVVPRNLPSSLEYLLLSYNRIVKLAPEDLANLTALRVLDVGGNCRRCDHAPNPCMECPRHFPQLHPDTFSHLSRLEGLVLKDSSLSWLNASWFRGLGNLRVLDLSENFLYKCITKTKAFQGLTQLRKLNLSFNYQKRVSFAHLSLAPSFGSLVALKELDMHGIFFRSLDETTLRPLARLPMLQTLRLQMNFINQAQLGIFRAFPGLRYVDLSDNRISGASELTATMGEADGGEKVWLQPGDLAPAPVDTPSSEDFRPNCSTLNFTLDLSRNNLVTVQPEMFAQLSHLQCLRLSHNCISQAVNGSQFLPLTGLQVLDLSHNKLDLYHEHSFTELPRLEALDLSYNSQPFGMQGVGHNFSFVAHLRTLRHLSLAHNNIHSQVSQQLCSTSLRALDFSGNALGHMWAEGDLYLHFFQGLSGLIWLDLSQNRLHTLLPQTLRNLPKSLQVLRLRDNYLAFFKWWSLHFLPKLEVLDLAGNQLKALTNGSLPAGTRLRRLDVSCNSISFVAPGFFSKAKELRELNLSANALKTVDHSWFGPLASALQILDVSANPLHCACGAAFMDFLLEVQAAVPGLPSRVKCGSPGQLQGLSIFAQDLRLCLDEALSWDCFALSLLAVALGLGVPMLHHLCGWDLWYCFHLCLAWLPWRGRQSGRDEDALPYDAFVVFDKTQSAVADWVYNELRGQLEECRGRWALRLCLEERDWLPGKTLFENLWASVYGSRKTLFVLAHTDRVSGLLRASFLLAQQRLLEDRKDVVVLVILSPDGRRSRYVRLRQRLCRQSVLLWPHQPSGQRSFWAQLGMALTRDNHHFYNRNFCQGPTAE
Description: TLR9 inhibition reporter assay (HEK-Blue SEAP). To be noted: HEK-Blue cells overexpressing human TLR9, ODN2006 5 nM, 22 hour incubation. The method, then:
as §1, §2

A value given as a limit tells only on which side of the number the result lay.

Take `COc1cc(-c2[nH]c3ccc(C4CCN(C(=O)CCCCCCCCCCCCCCCCC(=O)N5CCC(c6ccc7[nH]c(-c8cc(OC)c9ncnn9c8)c(C(C)C)c7c6)CC5)CC4)cc3c2C(C)C)cn2ncnc12` [Comparator Compound C1, 1,18-bis(4-(3-isopropyl-2-(8-methoxy-[1,2,4]triazolo[1,5-a]pyridin-6-yl)-1H-indol-5-yl)piperidin-1-yl)octadecane-1,18-dione, reference compound]: the IC50 – broadly, the point on the concentration scale where inhibition reaches its midpoint – in test [1] is above 3130 nM; in test [2], at least 3130 nM; in test [3], above 50000 nM.
The matching figures for `COc1cc(-c2[nH]c3ccc(C4CCN(C(=O)CCCCCCCCCCCCCCCCCC(=O)N5CCC(c6ccc7[nH]c(-c8cc(OC)c9ncnn9c8)c(C(C)C)c7c6)CC5)CC4)cc3c2C(C)C)cn2ncnc12` [Comparator Compound C3, reference compound]: above 3130 nM, above 3130 nM and above 50000 nM.
The matching figures for `COc1cc(-c2[nH]c3ccc(C4CCN(CCN)CC4)cc3c2C(C)C)cn2ncnc12` [Comparator Compound C4, 2-(4-(3-isopropyl-2-(8-methoxy-[1,2,4]triazolo[1,5-a]pyridin-6-yl)-1H-indol-5-yl)piperidin-1-yl)ethan-1-amine, reference compound]: 0.6 nM, 2.1 nM and 1970 nM.
As to `COc1cc(-c2[nH]c3ccc(C4CCN(CCNC(C)=O)CC4)cc3c2C(C)C)cn2ncnc12` [Comparator Compound C5, N-(2-(4-(3-isopropyl-2-(8-methoxy-[1,2,4]triazolo[1,5-a]pyridin-6-yl)-1H-indol-5-yl)piperidin-1-yl)ethyl)acetamide, reference compound], the results for the IC50 in test [1], in test [2] and in test [3] were 0.95 nM, 1.8 nM and 3570 nM, respectively.
For `COc1cc(-c2[nH]c3ccc(C4CCN(CCNC(=O)CCCCCCCCCCCC(=O)NCCN5CCC(c6ccc7[nH]c(-c8cc(OC)c9ncnn9c8)c(C(C)C)c7c6)CC5)CC4)cc3c2C(C)C)cn2ncnc12` [Example 1, N1,N13-bis(2-(4-(3-isopropyl-2-(8-methoxy-[1,2,4]triazolo[1,5-a]pyridin-6-yl)-1H-indol-5-yl)piperidin-1-yl)ethyl)tridecanediamide] the same measures were 0.92 nM, 1.4 nM and 121 nM.
For `COc1cc(-c2[nH]c3ccc(C4CCN(CCNC(=O)CCCCCCCCCCCCC(=O)NCCN5CCC(c6ccc7[nH]c(-c8cc(OC)c9ncnn9c8)c(C(C)C)c7c6)CC5)CC4)cc3c2C(C)C)cn2ncnc12` [Example 2, N1,N14-bis(2-(4-(3-isopropyl-2-(8-methoxy-[1,2,4]triazolo[1,5-a]pyridin-6-yl)-1H-indol-5-yl)piperidin-1-yl)ethyl)tetradecanediamide] the same measures were 1.9 nM, 1.6 nM and 149 nM.
The matching figures for `COc1cc(-c2[nH]c3ccc(C4CCN(CCNC(=O)CCCCCCCCCCC(=O)NCCN5CCC(c6ccc7[nH]c(-c8cc(OC)c9ncnn9c8)c(C(C)C)c7c6)CC5)CC4)cc3c2C(C)C)cn2ncnc12` [Example 3, N1,N12-bis(2-(4-(3-isopropyl-2-(8-methoxy-[1,2,4]triazolo[1,5-a]pyridin-6-yl)-1H-indol-5-yl)piperidin-1-yl)ethyl)dodecanediamide]: 0.31 nM, 0.32 nM and 99 nM.
Take `COc1cc(-c2[nH]c3ccc(C4CCN(CCNC(=O)CCCCCCCCCC(=O)NCCN5CCC(c6ccc7[nH]c(-c8cc(OC)c9ncnn9c8)c(C(C)C)c7c6)CC5)CC4)cc3c2C(C)C)cn2ncnc12` [Example 4, N1,N11-bis(2-(4-(3-isopropyl-2-(8-methoxy-[1,2,4]triazolo[1,5-a]pyridin-6-yl)-1H-indol-5-yl)piperidin-1-yl)ethyl)undecanediamide]: the IC50 stood at 0.25 nM in test [1], 0.22 nM in test [2] and 94 nM in test [3].
